Laboratory results from ChEMBL document CHEMBL5096149, “Recent Update on Targeting c-MYC G-Quadruplexes by Small Molecules for Anticancer Therapeutics” (J Med Chem, 2021).

Tests used:
Quadruplex DNA [1] = assay: Thermal stabilization of c-MYC G-quadruplex DNA (unknown origin) assessed as change in melting temperature at 1:2 ratio by circular dichroism spectroscopy; type: nucleic-acid assay
Quadruplex DNA [2] = assay: Binding affinity to c-MYC G-quadruplex DNA (unknown origin) assessed as association rate constant by fluorometric titration method; type: nucleic-acid assay
[3] = Cytotoxicity against human ARD cells assessed as inhibition of cell viability incubated for 72 hrs by MTS assay; type: functional, cell-based
RPMI-8226 = assay: Cytotoxicity against human RPMI-8226 cells assessed as inhibition of cell viability incubated for 72 hrs by MTS assay; type: functional, cell-based; conditions: RPMI-8226, 72 h
[4] = Cytotoxicity against human MOLP8 cells assessed as inhibition of cell viability incubated for 72 hrs by MTS assay; type: functional, cell-based; conditions: MOLP-8, 72 h
[5] = Cytotoxicity against human KMS-27 cells assessed as inhibition of cell viability incubated for 72 hrs by MTS assay; type: functional, cell-based; conditions: KMS-27, 72 h
[6] = Cytotoxicity against human KMM-1 cells assessed as inhibition of cell viability incubated for 72 hrs by MTS assay; type: functional, cell-based; conditions: KMM-1, 72 h
KMS-12-PE = assay: Cytotoxicity against human KMS-12-PE cells assessed as inhibition of cell viability incubated for 72 hrs by MTS assay; type: functional, cell-based
LP-1 = assay: Cytotoxicity against human LP-1 cells assessed as inhibition of cell viability incubated for 72 hrs by MTS assay; type: functional, cell-based; conditions: LP-1, 72 h
[7] = Cytotoxicity against human JIM1 cells assessed as inhibition of cell viability incubated for 72 hrs by MTS assay; type: functional, cell-based; conditions: JIM1, 72 h
Quadruplex DNA [8] = assay: Thermal stabilization of c-MYC G-quadruplex (Pu22) DNA (unknown origin) assessed as change in melting temperature at 1:1 ratio by circular dichroism spectroscopy; type: nucleic-acid assay
L-363 = assay: Cytotoxicity against human L-363 cells assessed as inhibition of cell viability incubated for 72 hrs by MTS assay; type: functional, cell-based; conditions: L-363, 72 h
AMO1 = assay: Cytotoxicity against human AMO1 cells assessed as inhibition of cell viability incubated for 72 hrs by MTS assay; type: functional, cell-based; conditions: AMO1, 72 h
Quadruplex DNA [9] = assay: Binding affinity to c-MYC G-quadruplex (Pu22) DNA (unknown origin) assessed as association rate constant by surface plasmon resonance analysis; type: nucleic-acid assay
Quadruplex DNA [10] = assay: Binding affinity to c-MYC G-quadruplex DNA (unknown origin) assessed as second order binding constant by electrospray ionization mass spectrometry; type: nucleic-acid assay
Quadruplex DNA [11] = assay: Binding affinity to c-MYC G-quadruplex DNA (unknown origin) assessed as first order binding constant by electrospray ionization mass spectrometry; type: nucleic-acid assay
Quadruplex DNA [12] = assay: Thermal stabilization of c-MYC G-quadruplex DNA (unknown origin) assessed as change in melting temperature at 1:2.5 ratio by FRET melting assay; type: nucleic-acid assay
Quadruplex DNA [13] = assay: Thermal stabilization of c-MYC G-quadruplex DNA (unknown origin) assessed as change in melting temperature at 1:10 ratio by FRET melting assay; type: nucleic-acid assay
Quadruplex DNA [14] = assay: Thermal stabilization of c-MYC G-quadruplex DNA (unknown origin) assessed as change in melting temperature at 1:5 ratio by circular dichroism spectroscopy; type: nucleic-acid assay
HeLa = assay: Antiproliferative activity against human HeLa cells assessed as inhibition of cell growth by XTT assay; type: functional, cell-based
[15] = Antiproliferative activity against human Kidney epithelial cells assessed as inhibition of cell growth by XTT assay; type: toxicity, cell-based
Quadruplex DNA [16] = assay: Thermal stabilization of c-MYC G-quadruplex DNA (unknown origin) assessed as change in melting temperature at 1:5 ratio by FRET melting assay; type: nucleic-acid assay
Quadruplex DNA [17] = assay: Binding affinity to c-MYC G-quadruplex DNA (unknown origin) assessed as association constant by fluorescence spectroscopy; type: nucleic-acid assay
A549 = assay: Antiproliferative activity against human A549 cells assessed as inhibition of cell growth by XTT assay; type: functional, cell-based
[18] = Cytotoxicity against mouse C2C12 cells assessed as reduction in cell viability incubated for 24 hrs by MTT assay; type: toxicity, cell-based
HepG2 = assay: Cytotoxicity against human HepG2 cells assessed as reduction in cell viability incubated for 24 hrs by MTT assay; type: functional, cell-based; conditions: HepG2, 24 h
MCF7 = assay: Cytotoxicity against human MCF7 cells assessed as reduction in cell viability incubated for 24 hrs by MTT assay; type: functional, cell-based; conditions: MCF7, 24 h
HCT-116 = assay: Cytotoxicity against human HCT-116 cells assessed as reduction in cell viability incubated for 24 hrs by MTT assay; type: functional, cell-based; conditions: HCT-116, 24 h
Quadruplex DNA [19] = assay: Binding affinity to c-MYC G-quadruplex (Mer22) DNA (unknown origin) assessed as first order binding constant by isothermal titration calorimetry method; type: nucleic-acid assay
Quadruplex DNA [20] = assay: Binding affinity to c-MYC G-quadruplex (Mer22) DNA (unknown origin) assessed as binding rate constant by surface plasmon resonance analysis; type: nucleic-acid assay
Quadruplex DNA [21] = assay: Binding affinity to c-MYC G-quadruplex (Mer22) DNA (unknown origin) assessed as second order binding constant by isothermal titration calorimetry method; type: nucleic-acid assay
Quadruplex DNA [22] = assay: Thermal stabilization of c-MYC G-quadruplex (Mer22) DNA (unknown origin) assessed as change in melting temperature at 1:3 ratio by UV-Vis spectroscopy; type: nucleic-acid assay
Quadruplex DNA [23] = assay: Thermal stabilization of c-MYC G-quadruplex (Mer22) DNA (unknown origin) assessed as change in melting temperature at 1:3 ratio by FRET melting assay; type: nucleic-acid assay

## CN(C)c1ccc2cc3c([n+](CCCCCCCCNC(=O)c4ccc(I)cc4)c2c1)C=CCC3
Quadruplex DNA [1]
  ΔTm: 33.9 °C
Quadruplex DNA [2]
  Ka: 7.4 10^7/M

## Cc1ccc(NC(=O)c2c(C)oc3ccc(O)c(CN4CCCCCC4)c23)cc1
[3]
  IC50: 12.9 µM
RPMI-8226
  IC50: 15.9 µM
[4]
  IC50: 8.3 µM
[5]
  IC50: 9.6 µM
[6]
  IC50: 15.6 µM
KMS-12-PE
  IC50: 6.5 µM
LP-1
  IC50: 8.3 µM
[7]
  IC50: 14.1 µM
Quadruplex DNA [8]
  ΔTm: 2.1 °C
L-363
  IC50: 5.8 µM
AMO1
  IC50: 11.3 µM
Quadruplex DNA [9]
  Ka: 2.2 10^5/M

## O=c1c2ccc3c4c(N5CCCCC5)cc5c(=O)n(CCN6CCCCC6)c(=O)c6cc7c(CCN8CCCCC8)cc8cc(c(=O)n1CCN1CCCCC1)c2c3c8c7c4c56
Quadruplex DNA [10]
  K: 6.3 10^5/M
Quadruplex DNA [11]
  K: 1.2 10^6/M
Quadruplex DNA [12]
  ΔTm: 16.4 °C

## c1cc2ccc3ccc4nc3c2nc1CNCCCCCCNC4
Quadruplex DNA [13]
  ΔTm: 11.3 °C
Quadruplex DNA [2]
  Ka: 1.4 10^5/M
Quadruplex DNA [14]
  ΔTm: 19.3 °C

## CN(C)CCCNC(=O)c1csc(NC(=O)c2csc(NC(=O)c3csc(N)n3)n2)n1
HeLa
  IC50: 3.8 µM
[15]
  IC50: > 50 µM
Quadruplex DNA [16]
  ΔTm: 22 °C
Quadruplex DNA [17]
  Ka: 4 10^6/M
A549
  IC50: 3.2 µM

## CN(C)CCCNC(=O)c1ccc(-n2cc(-c3ccc4c(c3)c3cc(-c5cn(-c6ccc(C(=O)NCCCN(C)C)cc6)nn5)ccc3n4CCCN(C)C)nn2)cc1
[18]
  IC50 at 24 h: > 45 µM
Quadruplex DNA [16]
  ΔTm: 22.7 °C
Quadruplex DNA [17]
  Ka: 3.3 10^6/M
HepG2
  IC50: 4.3 µM
MCF7
  IC50: 6.8 µM
HCT-116
  IC50: 8.2 µM

## NCC1=C2CNC(=O)C3=CC(CN)=C(CNC(=O)c4cc(CN)c(o4)CNC(=O)C4=CC(CN)=C(CNC(=O)C(=C1)O2)O4)O3
Quadruplex DNA [19]
  K: 2.4 10^7/M
Quadruplex DNA [20]
  K: 2.87 10^7/M
Quadruplex DNA [21]
  K: 1.86 10^6/M
Quadruplex DNA [22]
  ΔTm: 18 °C
Quadruplex DNA [23]
  ΔTm: 18 °C

## c1cc2ccc3ccc4nc3c2nc1CNCCCCCCNCc1ccc2ccc3ccc(nc3c2n1)CNCCCCCCNC4
Quadruplex DNA [13]
  ΔTm: 17.2 °C
Quadruplex DNA [2]
  Ka: 1.3 10^5/M
Quadruplex DNA [14]
  ΔTm: 15.1 °C

## CN(C)CCCNC(=O)c1ccc(-n2cc(-c3ccc4c(c3)c3ccccc3n4-c3ccc(C(=O)NCCCN(C)C)cc3)nn2)cc1
Quadruplex DNA [13]
  ΔTm: 19.3 °C
Quadruplex DNA [17]
  Ka: 5.9 10^6/M
HCT-116
  IC50: 2.1 µM

## C/C(=N/Nc1nc2ccccc2s1)c1ccc(-c2cccc(C(=O)NCCCN(C)C)c2)o1
Quadruplex DNA [16]
  ΔTm: 15.3 °C
Quadruplex DNA [17]
  Ka: 1.3 10^5/M

## Nc1nc(-c2ccccc2)c2c(n1)-c1cc(OCCN3CCCC3)ccc1C2=O
Quadruplex DNA [17]
  Ka: 1 10^5/M
Quadruplex DNA [14]
  ΔTm: 7.8 °C
